Earlier results, collected in patent US7521440B2, “Targeted oxidative therapeutic formulation” (Torquin, LLC, priority 2001, dated 2009).

How the values were obtained:
E. coli = details: increasing peroxide concentration ex-vivo in rabbit or human blood
[1] = tested on: peroxide-sensitive E. coli; details: infused into the blood of infected rabbits

For `OO` [hydrogen peroxide, Hydrogen peroxide], the direct bactericidal activity (E. coli) is listed as “no evidence of direct bactericidal activity” and the bactericidal effect [1] is listed as “no bactericidal effect”.
